Results taken from US20260250640A1, “NOVEL COMPOSITIONS AND THEIR USE TO INCREASE MOTILITY, VIABILITY AND LIFESPAN OF SPERM CELLS AND FERTILITY” (IMV TECHNOLOGIES, priority 2023, published 2026).

Tested on: bull semen
Experimental: • a 2.4 mM BaCl2 solution in OptiXcell was prepared, • 1 mL of this solution was resuspended in a 5 mg vial of DMNP-EDTA, • 1.5 mL of DMNP-EDTA were added for a final DMNP-EDTA concentration of 2.6 mM, • The solution was kept away from light, • The solution was contacted with semen in different chelator/semen ratios: • 1:1=>500 μL chelators+500 μL bull semen at 57 Mspz/mL • 1:0.75=>500 μL chelators+375 μL bull semen at 57 Mspz/mL • 1:0.5=>500 μL chelators+250 μL bull semen at 57 Mspz/mL • 1:0.25=>500 μL chelators+125 μL bull semen at 57 Mspz/mL • A BaCl2 solution only: 500 μL BaCl2 at 2.4 mM+500 μL bull semen at 57 Mspz/mL was prepared • The following analyses have been performed on frozen bull semen: • Mobility analysis on IVOS II™ at T=0 and T3H 37° C., • Acrosome integrity analysis on EasyCyte at T=0 and T3H 37° C., • Viability analysis on EasyCyte at T=0 and T3H 37° C. • Mitochondrial activity analysis on EasyCyte at T=0 and T3H 37° C.
The control corresponds to OptiXcell alone.

| Structure (SMILES) | sperm viability (T=3H 37° C.) | impact on viability | sperm viability, difference vs. Control | impact on mobility (T0 and T3H 37° C., conclusion) | sperm motility, difference vs control (OptiXcell alone) (T=3H 37° C., 1/1 chelator/semen) | sperm motility (presence of chelator (BaCl2/DMNP-EDTA solution in OptiXcell), T=0 and T3H 37° C.) |
| --- | --- | --- | --- | --- | --- | --- |
| [Ba+2].[Cl-].[Cl-] [BaCl2] | remained unchanged | – | – | – | – | – |
| COc1cc(C(CN(CC(=O)O)CC(=O)O)N(CC(=O)O)CC(=O)O)c([N+](=O)[O-])cc1OC (stereo not drawn) [chelator, DMNP-EDTA] | – | No major impact | +13 pts | No major impact | +9 pts | not affected |
